What was measured:
[1] = molecular target: SUMO-activating enzyme (Homo sapiens, UniProt Q9UBT2); test: Biochemical assays of SUMO-activating enzyme inhibition
[2] = tested on: Daudi human Burkitt’s Lymphoma cell line; test: Study 7: Daudi xenograft human Burkitt's lymphoma subcutaneous tumor model (daratumumab or AB79); format: in vivo, CB17 SCID mice; settings: for GRI%: vs vehicle; for Tumor growth relative to vehicle-treated tumors (pairwise comparison): each agent 7.5 mg/kg BIW, I-263a p = 0.105, daratumumab p < 0.001, AB79 p = 0.002, both combinations p < 0.001, data up to Day 22
Description: (§1) Low tumor volumes can cause problems with the data analysis, so all measurements below 25 cubic mm (including 0 values) were excluded from the analysis. After this exclusion step, the tumor volume was assumed to follow an exponential growth model. More specifically, for a given animal and treatment group,
(§2) Pairwise comparisons were performed, where the mean growth rates were compared for various pairs of treatment conditions. The results were summarized using the growth rate inhibition (GRI). Suppose µT and µC are the mean tumor growth rates for the treatment and reference groups, respectively. Define
(§3) Here, µAB, µA, µB, and µControl are the mean growth rates for the combination, drug A, drug B, and control groups, respectively. As before, µv is the mean tumor growth rate for the vehicle group, which in most cases is the same as the control group. The standard error of the synergy score was calculated as the square root of the sum of squared standard errors across the four groups. The degrees of freedom were estimated using the Welch-Satterthwaite equation. A hypothesis test was performed to determine if the synergy score differed from 0. P-values were calculated by dividing the synergy score by its standard error and tested against a t-distribution (two-tailed) with the above-calculated degrees of freedom. A P value of less than 0.05 is statistically significant.
(§4) The combination results can be interpreted as follows. Statistically significant negative synergy scores indicate a synergistic combination (“Syn.”). Statistically significant positive synergy scores indicate a sub-additive combination (“Sub-add.”) when the combination performs better (i.e. has a lower growth rate) than the best performing single agent. Statistically significant positive synergy scores indicate an antagonistic combination (“Antag.”) when the combination performs worse than the best performing single agent. Scores that are not statistically significant should be considered additive (“Add.”).
Daudi is a human Burkitt’s Lymphoma cell line. A Daudi human xenograft tumor model was generated by subcutaneous inoculation with 2.0 × 10^6 Daudi cells (cell suspension) in 7 weeks old female CB17 SCID mice (Charles River Laboratories, 251 Ballardvale St., Wilmington, MA) in the flank. When the mean tumor volume reached approximately 110 mm3, the animals were randomized into one vehicle control and six treatment groups (n=8/group). Mice were then dosed with 20% HPβCD or Compound I-263a and/or daratumumab or AB79 over a 21-day period. Tumor growth and body weight were measured twice per week during the treatment and post-treatment periods, and mice were humanely euthanized once they had reached their humane endpoint.
A 0.75 mg/mL stock solution of I-263a was formulated weekly in 20% HPβCD and administered intravenously (IV) based on an average body weight using a 0.2 mL dosing volume. Final doses of I-263a received were 7.5 mg/kg. I-263a was administered on a BIW schedule for 3 weeks (Days 1, 4, 8, 11, 15, and 18). Daratumumab (anti-CD38 antibody) (Myoderm Medical Supplies, 48 E Main St., Norristown, PA 19401) was purchased at the beginning of the study and stored at 4° C. according to manufacturer’s instructions. Final dose of daratumumab received was 7.5 mg/kg based on average body weight. Daratumumab was administered intraperitoneally (IP) using a 0.1 mL dosing volume, on a BIW schedule for 3 weeks (Days, 1, 4, 8, 11, 15, and 18). AB79 was formulated on the day of dosing in 0.9% saline and administered intraperitoneally (IP) using a 0.1 mL dosing volume, on a BIW schedule for 3 weeks (Days, 1, 4, 8, 11, 15, and 18). Final dose of AB79 was 7.5 mg/kg based on average body weight.
Tumors were measured twice weekly using Vernier calipers. Tumor volumes were calculated using standard equation: V = W2 × L/2, where V = volume, W = width, and L = length for the tumor. […]

[3] = tested on: MOLP-8 human multiple myeloma cell line; test: Study 4: MOLP-8 xenograft human multiple myeloma subcutaneous tumor model; format: in vivo, SCID mice; settings: for Tumor growth compared to vehicle (pairwise comparison): I-263a 7.5 mg/kg BIW 2 weeks (p < 0.05 as printed), daratumumab 2.5, 7.5 or 20 mg/kg (p < 0.01; p < 0.01; p < 0.001), I-263a with daratumumab 2.5, 7.5 or 20 mg/kg (p < 0.001); for GRI%: vs vehicle
Description: as §1, §2, §3, §4
MOLP-8 is a human multiple myeloma cell line. A MOLP-8 human xenograft tumor model was generated by subcutaneous inoculation with 4.0 × 10^6 MOLP-8 cells (cell suspension) in 14 weeks old female SCID mice (Vital River Laboratory Animal Technology Co., Ltd, Beijing, China) in the flank. When the mean tumor volume reached approximately 170 mm^3, the animals were randomized into one vehicle control and seven treatment groups (n=8/group). Mice were then dosed with 20% HPβCD or Compound I-263a or daratumumab over a 14-day period. Tumor growth and body weight were measured twice per week during the treatment and post-treatment periods, and mice were humanely euthanized once they had reached their humane endpoint.
A 0.75 mg/mL stock solution of I-263a was formulated weekly in 20% HPβCD and administered IV based on exact animal body weight on each day of treatment, using a dosing volume of 10 mL/kg body weight. Final dose I-263a received was 7.5 mg/kg. I-263a was administered on a BIW schedule for 2 weeks (Days 1, 4, 8, and 11). Daratumumab (anti-CD38 antibody) (Janssen Biotech, Inc., Horsham, PA) was stored at 4° C. according to manufacturer’s instructions. Final dose daratumumab received was 2.5 mg/kg, 7.5 mg/kg, and 20 mg/kg based on exact animal body weight on each day of treatment, using a dosing volume of 10 mL/kg body weight. Daratumumab was administered intraperitoneally (IP) using a 0.1 mL dosing volume, on a BIW schedule for 2 weeks (Days 1, 4, 8, and 11).
Tumors were measured twice weekly using Vernier calipers. Tumor volumes were calculated using standard equation: V = W^2 × L/2, where V = volume, W = width, and L = length for the tumor. When mean tumor volumes reached approximately 170 mm^3, mice were randomized into control and treatment groups. Mice were randomized into 8 groups (n=8/group) and dosed with vehicle (20% HPβCD), I-263a, daratumumab, or the combination of I-263a plus daratumumab at doses and schedules as described above. […]

[4] = tested on: SUMO-activating enzyme and SUMOylation; test: Inhibition of SUMO-activating enzyme and SUMOylation in cultured tumor cell lines; format: cell-based; settings: cultured mouse and human tumor cell lines

Chain of SUMO-activating enzyme (Q9UBT2 whole entry): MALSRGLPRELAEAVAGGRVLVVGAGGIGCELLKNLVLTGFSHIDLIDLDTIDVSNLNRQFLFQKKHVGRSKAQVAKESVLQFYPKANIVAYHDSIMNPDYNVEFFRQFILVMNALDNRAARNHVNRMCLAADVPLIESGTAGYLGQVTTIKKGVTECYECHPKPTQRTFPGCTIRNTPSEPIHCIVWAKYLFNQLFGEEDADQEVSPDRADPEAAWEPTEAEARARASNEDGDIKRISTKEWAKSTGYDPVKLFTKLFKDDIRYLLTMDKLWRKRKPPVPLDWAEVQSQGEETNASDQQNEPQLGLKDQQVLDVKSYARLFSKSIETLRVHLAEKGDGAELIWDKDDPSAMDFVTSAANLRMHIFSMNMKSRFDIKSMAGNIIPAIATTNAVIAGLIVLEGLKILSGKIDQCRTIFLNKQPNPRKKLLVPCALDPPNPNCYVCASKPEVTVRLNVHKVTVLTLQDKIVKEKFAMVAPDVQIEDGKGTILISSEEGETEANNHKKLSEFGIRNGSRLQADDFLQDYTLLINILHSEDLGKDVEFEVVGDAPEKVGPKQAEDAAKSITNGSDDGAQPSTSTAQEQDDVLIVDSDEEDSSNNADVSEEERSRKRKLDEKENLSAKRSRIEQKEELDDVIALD
Chain of SUMO-activating enzyme (Q9UBE0 whole entry partner): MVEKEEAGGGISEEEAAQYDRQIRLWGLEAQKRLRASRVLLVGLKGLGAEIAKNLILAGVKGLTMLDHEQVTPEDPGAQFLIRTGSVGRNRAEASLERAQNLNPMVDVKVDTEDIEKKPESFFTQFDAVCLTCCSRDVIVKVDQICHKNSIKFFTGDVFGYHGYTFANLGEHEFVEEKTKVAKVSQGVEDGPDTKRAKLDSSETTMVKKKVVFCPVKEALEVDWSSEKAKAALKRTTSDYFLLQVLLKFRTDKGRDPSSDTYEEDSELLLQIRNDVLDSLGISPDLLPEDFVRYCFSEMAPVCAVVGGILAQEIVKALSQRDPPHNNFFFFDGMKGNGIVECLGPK
Chain of SUMO-activating enzyme (P63165 1-97 partner limits assumed): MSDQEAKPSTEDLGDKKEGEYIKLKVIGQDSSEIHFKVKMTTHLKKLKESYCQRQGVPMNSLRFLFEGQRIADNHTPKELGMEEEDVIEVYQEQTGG

Cc1sc(C(=O)c2cncnc2N[C@@H]2C[C@H](COS(N)(=O)=O)[C@@H](O)C2)cc1[C@@H]1NCCc2ccc(Cl)cc21 [Compound I-263a, [(1R,2S,4R)-4-{[5-({4-[(1R)-7-chloro-1,2,3,4-tetrahydroisoquinolin-1-yl]-5-methyl-2-thienyl}carbonyl)pyrimidin-4-yl]amino}-2-hydroxycyclopentyl]methyl sulfamate]
Inhibition of SUMO-activating enzyme activity ([1]; mechanism-based inhibitor forming a covalent adduct with SUMO): potently inhibits enzyme activity | Selectivity for SUMO-activating enzyme ([1]; over ubiquitin-activating enzyme, Nedd8-activating enzyme, and autophagy related 7 enzyme): Strong selectivity | Tumor Volume on Day 22 (±SEM) ([2]; I-263a 7.5 mg/kg BIW IV): 1305 (±83.6) | GRI% ([2]; I-263a 7.5 mg/kg BIW IV): 13% | Tumor growth relative to vehicle-treated tumors (pairwise comparison) [2]: tumor growth inhibition | Tumor growth compared to vehicle (pairwise comparison) [3]: not significantly different | Tumor volume on Day 14 (± SEM) ([3]; I-263a 7.5 mg/kg BIW IV): 2500.8 ± 106.6 | GRI% ([3]; I-263a 7.5 mg/kg BIW IV): 3% | Inhibition of SUMO-activating enzyme and SUMOylation in cells [4]: Selective and potent inhibition

Daratumumab: immunoglobulin G1 kappa (IgG1κ) human monoclonal antibody against CD38 antigen
Tumor Volume on Day 22 (±SEM) ([2]; Daratumumab 7.5 mg/kg BIW IP): 1004.9 (±97.1) | GRI% ([2]; Daratumumab 7.5 mg/kg BIW IP): 31% | Tumor growth relative to vehicle-treated tumors (pairwise comparison) [2]: tumor growth inhibition | Tumor volume on Day 14 (± SEM) ([3]; Daratumumab 2.5 mg/kg BIW IP): 2047.4 ± 83.4 | GRI% ([3]; Daratumumab 2.5 mg/kg BIW IP): 11% | Tumor volume on Day 14 (± SEM) ([3]; Daratumumab 7.5 mg/kg BIW IP): 1653 ± 158.5 | GRI% ([3]; Daratumumab 7.5 mg/kg BIW IP): 20% | Tumor volume on Day 14 (± SEM) ([3]; Daratumumab 20 mg/kg BIW IP): 1250.6 ± 108.6 | GRI% ([3]; Daratumumab 20 mg/kg BIW IP): 28% | Tumor growth compared to vehicle (pairwise comparison) [3]: significantly inhibited growth curves

Source: patent publication US20230218618A1, “ADMINISTRATION OF SUMO-ACTIVATING ENZYME INHIBITOR AND ANTI-CD38 ANTIBODIES” (MILLENNIUM PHARMACEUTICALS, INC., priority 2020, published 2023)
